These results are taken from ChEMBL document CHEMBL5055626 (J Med Chem, 2021).

Calls of active or inactive are those of the source. No cut-off for these calls is given here. Where a SMILES comes first, the peptide text is derived from it. Bridges are numbered along the chain shown (N, C = ends).

Test [1] addresses Neuronal acetylcholine receptor subunit alpha-7 (Rattus norvegicus, UniProt Q05941). The experiment in a line: Antagonist activity at rat alpha7 nAChR expressed in xenopus oocytes assessed as inhibition of Ach- induced response at -70 mV holding potential preincubated for 5 mins followed by Ach stimulation by voltage-clamp based electrophysiological method. The format is cell-based, Oocyte.

Test [2] deals with T1, Nicotinic acetylcholine receptor alpha6/alpha3/beta4 (Homo sapiens, UniProt P30926+P32297+Q15825). The experiment in a line: Antagonist activity at rat alpha6/alpha3beta4 nAChR expressed in xenopus oocytes assessed as inhibition of Ach- induced response at -70 mV holding potential preincubated for 5 mins followed by Ach stimulation by voltage-clamp based electrophysiological method. The format is cell-based, Oocyte.
T1 sequence (P30926 whole entry): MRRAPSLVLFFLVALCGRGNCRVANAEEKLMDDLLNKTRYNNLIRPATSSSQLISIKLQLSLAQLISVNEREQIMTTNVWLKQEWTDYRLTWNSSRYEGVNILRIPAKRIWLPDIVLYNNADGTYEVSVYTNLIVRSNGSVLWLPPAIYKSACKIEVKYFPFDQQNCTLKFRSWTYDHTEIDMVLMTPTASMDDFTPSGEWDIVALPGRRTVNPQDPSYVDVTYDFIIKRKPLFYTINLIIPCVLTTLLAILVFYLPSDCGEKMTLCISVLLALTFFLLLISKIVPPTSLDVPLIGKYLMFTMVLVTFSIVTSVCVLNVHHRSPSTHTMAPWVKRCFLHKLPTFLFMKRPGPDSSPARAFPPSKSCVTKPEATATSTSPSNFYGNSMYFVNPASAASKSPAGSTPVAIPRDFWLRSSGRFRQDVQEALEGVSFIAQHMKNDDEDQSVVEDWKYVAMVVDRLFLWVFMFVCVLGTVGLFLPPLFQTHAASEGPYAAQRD
T1 sequence (P32297 whole entry): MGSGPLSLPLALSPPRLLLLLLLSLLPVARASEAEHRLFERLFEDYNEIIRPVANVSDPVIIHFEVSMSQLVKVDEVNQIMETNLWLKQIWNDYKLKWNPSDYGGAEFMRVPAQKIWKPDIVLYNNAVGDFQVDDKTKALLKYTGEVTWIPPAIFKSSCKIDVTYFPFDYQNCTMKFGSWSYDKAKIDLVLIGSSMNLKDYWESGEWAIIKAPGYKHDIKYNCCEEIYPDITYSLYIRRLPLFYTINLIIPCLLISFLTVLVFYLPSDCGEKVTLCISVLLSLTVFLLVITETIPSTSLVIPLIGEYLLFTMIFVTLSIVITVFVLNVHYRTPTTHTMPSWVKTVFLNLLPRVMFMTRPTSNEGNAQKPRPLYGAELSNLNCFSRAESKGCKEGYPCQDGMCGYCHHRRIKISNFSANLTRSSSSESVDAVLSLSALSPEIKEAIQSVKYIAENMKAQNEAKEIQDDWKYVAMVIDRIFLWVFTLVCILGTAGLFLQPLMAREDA
T1 sequence (Q15825 whole entry): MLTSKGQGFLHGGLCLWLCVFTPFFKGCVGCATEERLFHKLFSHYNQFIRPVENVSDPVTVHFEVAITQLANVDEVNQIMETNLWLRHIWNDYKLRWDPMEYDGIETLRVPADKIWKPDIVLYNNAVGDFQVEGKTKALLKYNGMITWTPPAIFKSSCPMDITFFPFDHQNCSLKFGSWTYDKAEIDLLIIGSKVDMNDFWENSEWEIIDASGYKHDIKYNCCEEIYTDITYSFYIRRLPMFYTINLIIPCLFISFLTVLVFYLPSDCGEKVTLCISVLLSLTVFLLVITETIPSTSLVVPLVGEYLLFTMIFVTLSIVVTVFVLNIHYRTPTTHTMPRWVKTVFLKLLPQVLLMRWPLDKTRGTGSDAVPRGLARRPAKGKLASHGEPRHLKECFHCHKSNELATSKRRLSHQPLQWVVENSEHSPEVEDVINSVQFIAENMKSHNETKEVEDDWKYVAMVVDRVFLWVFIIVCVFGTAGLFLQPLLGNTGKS

Test [3] concerns the target Neuronal acetylcholine receptor; alpha3/beta2 (Rattus norvegicus, UniProt P04757+P12390). The experiment in a line: Antagonist activity at rat alpha3beta2 nAChR expressed in xenopus oocytes assessed as inhibition of Ach- induced response at -70 mV holding potential preincubated for 5 mins followed by Ach stimulation by voltage-clamp based electrophysiological method. Type of test: cell-based, Oocyte.

Test [4] can be described thus: Antagonist activity at rat alpha6/ alpha3beta2beta3 nAChR expressed in xenopus oocytes assessed as inhibition of Ach- induced response at -70 mV holding potential preincubated for 5 mins followed by Ach stimulation by voltage-clamp based electrophysiological method. The format is cell-based. The settings on record: Oocyte.
Test [5] deals with Neuronal acetylcholine receptor; alpha2/beta2 (Rattus norvegicus, UniProt P12389+P12390). The experiment in a line: Antagonist activity at rat alpha2beta2 nAChR expressed in xenopus oocytes assessed as inhibition of Ach- induced response at -70 mV holding potential preincubated for 5 mins followed by Ach stimulation by voltage-clamp based electrophysiological method. The format is cell-based, Oocyte.

In test [6] the target is Neuronal acetylcholine receptor; alpha2/beta4 (Rattus norvegicus, UniProt P12389+P12392). The experiment in a line: Antagonist activity at rat alpha2beta4 nAChR expressed in xenopus oocytes assessed as inhibition of Ach- induced response at -70 mV holding potential preincubated for 5 mins followed by Ach stimulation by voltage-clamp based electrophysiological method. The format is cell-based, Oocyte.

The target in test [7] is Neuronal acetylcholine receptor; alpha3/beta4 (Rattus norvegicus, UniProt P04757+P12392). Kind of test: Antagonist activity at rat alpha3beta4 nAChR expressed in xenopus oocytes assessed as inhibition of Ach- induced response at -70 mV holding potential preincubated for 5 mins followed by Ach stimulation by voltage-clamp based electrophysiological method. Type of test: cell-based, Oocyte.
Neuronal acetylcholine receptor; alpha3/beta4, sequence (P04757 whole entry): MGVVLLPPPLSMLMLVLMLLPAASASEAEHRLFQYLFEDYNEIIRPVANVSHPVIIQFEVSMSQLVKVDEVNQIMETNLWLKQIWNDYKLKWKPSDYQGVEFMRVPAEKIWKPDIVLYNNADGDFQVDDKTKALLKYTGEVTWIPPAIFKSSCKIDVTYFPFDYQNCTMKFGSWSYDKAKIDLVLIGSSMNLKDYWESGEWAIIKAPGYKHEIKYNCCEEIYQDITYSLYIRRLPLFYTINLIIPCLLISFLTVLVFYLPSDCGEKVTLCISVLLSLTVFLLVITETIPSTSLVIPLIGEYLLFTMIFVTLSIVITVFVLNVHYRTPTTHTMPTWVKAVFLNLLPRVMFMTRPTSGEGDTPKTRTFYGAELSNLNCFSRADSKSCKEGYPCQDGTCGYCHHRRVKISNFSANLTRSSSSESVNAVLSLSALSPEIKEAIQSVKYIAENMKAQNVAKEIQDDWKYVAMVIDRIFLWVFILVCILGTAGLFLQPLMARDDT
Neuronal acetylcholine receptor; alpha3/beta4, sequence (P12392 whole entry): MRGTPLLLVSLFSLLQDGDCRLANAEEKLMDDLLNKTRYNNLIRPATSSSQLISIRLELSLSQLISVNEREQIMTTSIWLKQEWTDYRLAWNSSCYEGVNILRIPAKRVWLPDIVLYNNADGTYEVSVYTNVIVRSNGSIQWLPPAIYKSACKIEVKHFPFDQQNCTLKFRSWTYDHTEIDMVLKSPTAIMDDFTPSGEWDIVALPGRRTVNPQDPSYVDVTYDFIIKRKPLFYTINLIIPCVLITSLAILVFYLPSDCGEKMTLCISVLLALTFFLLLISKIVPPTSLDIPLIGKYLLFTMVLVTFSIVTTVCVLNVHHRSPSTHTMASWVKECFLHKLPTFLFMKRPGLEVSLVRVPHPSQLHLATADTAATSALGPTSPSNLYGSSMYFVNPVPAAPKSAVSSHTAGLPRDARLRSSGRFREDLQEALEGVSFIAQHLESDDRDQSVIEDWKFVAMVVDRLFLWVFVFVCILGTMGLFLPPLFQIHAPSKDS

The target of test [8] is Neuronal acetylcholine receptor; alpha4/beta2 (Rattus norvegicus, UniProt P09483+P12390). The experiment in a line: Antagonist activity at rat alpha4beta2 nAChR expressed in xenopus oocytes assessed as inhibition of Ach- induced response at -70 mV holding potential preincubated for 5 mins followed by Ach stimulation by voltage-clamp based electrophysiological method. Type of test: cell-based, Oocyte.

Test [9] concerns the target Neuronal acetylcholine receptor; alpha4/beta4 (Rattus norvegicus, UniProt P09483+P12392). Kind of test: Antagonist activity at rat alpha4beta4 nAChR expressed in xenopus oocytes assessed as inhibition of Ach- induced response at -70 mV holding potential preincubated for 5 mins followed by Ach stimulation by voltage-clamp based electrophysiological method. Type of test: cell-based, Oocyte.

For test [10], the target named is Nicotinic acetylcholine receptor alpha9/alpha10 (Rattus norvegicus, UniProt P43144+Q9JLB5). Kind of test: Antagonist activity at rat alpha9alpha10 nAChR expressed in xenopus oocytes assessed as inhibition of Ach- induced response at -70 mV holding potential preincubated for 5 mins followed by Ach stimulation by voltage-clamp based electrophysiological method. The format is cell-based, Oocyte.
Nicotinic acetylcholine receptor alpha9/alpha10, sequence (P43144 whole entry): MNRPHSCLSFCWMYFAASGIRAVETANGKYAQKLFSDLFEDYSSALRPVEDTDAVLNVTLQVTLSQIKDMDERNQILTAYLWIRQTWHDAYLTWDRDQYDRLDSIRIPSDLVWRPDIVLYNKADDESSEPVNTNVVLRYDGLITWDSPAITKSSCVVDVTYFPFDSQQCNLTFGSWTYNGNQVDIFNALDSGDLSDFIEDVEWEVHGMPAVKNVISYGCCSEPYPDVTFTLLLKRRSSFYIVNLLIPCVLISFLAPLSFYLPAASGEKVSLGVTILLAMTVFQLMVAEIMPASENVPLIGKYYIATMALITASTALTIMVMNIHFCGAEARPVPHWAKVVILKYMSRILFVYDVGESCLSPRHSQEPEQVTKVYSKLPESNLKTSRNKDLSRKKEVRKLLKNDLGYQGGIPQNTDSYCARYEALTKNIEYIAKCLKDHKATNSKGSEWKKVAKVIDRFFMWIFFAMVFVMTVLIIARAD
Nicotinic acetylcholine receptor alpha9/alpha10, sequence (Q9JLB5 whole entry): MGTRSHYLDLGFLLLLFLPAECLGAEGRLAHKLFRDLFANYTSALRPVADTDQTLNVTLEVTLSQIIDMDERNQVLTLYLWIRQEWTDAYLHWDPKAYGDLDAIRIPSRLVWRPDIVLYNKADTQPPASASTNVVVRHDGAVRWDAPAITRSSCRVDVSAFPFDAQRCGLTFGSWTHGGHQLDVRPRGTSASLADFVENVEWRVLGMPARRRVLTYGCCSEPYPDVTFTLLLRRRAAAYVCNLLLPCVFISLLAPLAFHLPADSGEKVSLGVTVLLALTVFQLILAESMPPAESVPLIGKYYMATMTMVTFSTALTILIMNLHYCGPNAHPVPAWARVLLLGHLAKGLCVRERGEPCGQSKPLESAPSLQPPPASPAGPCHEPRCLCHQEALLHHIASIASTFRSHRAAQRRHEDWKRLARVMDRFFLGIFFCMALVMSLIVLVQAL

The target of test [11] is T1, Nicotinic acetylcholine receptor alpha6/alpha3/beta4. Kind of test: Antagonist activity at rat alpha6/alpha3beta4 nAChR expressed in xenopus oocytes assessed as inhibition of Ach- induced response at 10^-5 M at -70 mV holding potential preincubated for 5 mins followed by Ach stimulation by voltage-clamp based electrophysiological method relative to control. The format is cell-based. The arrangement: scale not given: the % may be the effect or the level left. Particulars: Oocyte, filed as antagonist, dose 1.0 10^-5M.

Test [12] concerns the target Nicotinic acetylcholine receptor alpha9/alpha10 (Rattus norvegicus) (UniProt P43144+Q9JLB5). Kind of test: Antagonist activity at rat alpha9alpha10 nAChR expressed in xenopus oocytes assessed as inhibition of Ach- induced response at 10 uM at -70 mV holding potential preincubated for 5 mins followed by Ach stimulation by voltage-clamp based electrophysiological method. Particulars: Oocyte. Type of test: cell-based.

Test [13] concerns the target Neuronal acetylcholine receptor; alpha2/beta2 (Rattus norvegicus) (UniProt P12389+P12390). The experiment in a line: Antagonist activity at rat alpha2beta2 nAChR expressed in xenopus oocytes assessed as inhibition of Ach- induced response at 10 uM at -70 mV holding potential preincubated for 5 mins followed by Ach stimulation by voltage-clamp based electrophysiological method. Type of test: cell-based. The settings on record: Oocyte.

Test [14] addresses Neuronal acetylcholine receptor; alpha2/beta4 (Rattus norvegicus) (UniProt P12389+P12392). The experiment in a line: Antagonist activity at rat alpha2beta4 nAChR expressed in xenopus oocytes assessed as inhibition of Ach- induced response at 10 uM at -70 mV holding potential preincubated for 5 mins followed by Ach stimulation by voltage-clamp based electrophysiological method. Type of test: cell-based. Particulars: Oocyte.

In test [15] the target is Neuronal acetylcholine receptor; alpha3/beta4 (Rattus norvegicus) (UniProt P04757+P12392). Kind of test: Antagonist activity at rat alpha3beta4 nAChR expressed in xenopus oocytes assessed as inhibition of Ach- induced response at 10 uM at -70 mV holding potential preincubated for 5 mins followed by Ach stimulation by voltage-clamp based electrophysiological method. The format is cell-based. The settings on record: Oocyte.

Test [16] addresses Neuronal acetylcholine receptor; alpha4/beta2 (Rattus norvegicus) (UniProt P09483+P12390). The experiment in a line: Antagonist activity at rat alpha4beta2 nAChR expressed in xenopus oocytes assessed as inhibition of Ach- induced response at 10 uM at -70 mV holding potential preincubated for 5 mins followed by Ach stimulation by voltage-clamp based electrophysiological method. Type of test: cell-based. The settings on record: Oocyte.

Test [17] deals with Neuronal acetylcholine receptor; alpha4/beta4 (Rattus norvegicus) (UniProt P09483+P12392). The experiment in a line: Antagonist activity at rat alpha4beta4 nAChR expressed in xenopus oocytes assessed as inhibition of Ach- induced response at 10 uM at -70 mV holding potential preincubated for 5 mins followed by Ach stimulation by voltage-clamp based electrophysiological method. Type of test: cell-based. The settings on record: Oocyte.

For test [18], the target named is Neuronal acetylcholine receptor; alpha3/beta2 (Rattus norvegicus) (UniProt P04757+P12390). The experiment in a line: Antagonist activity at rat alpha3beta2 nAChR expressed in xenopus oocytes assessed as inhibition of Ach- induced response at 10^-5 M at -70 mV holding potential preincubated for 5 mins followed by Ach stimulation by voltage-clamp based electrophysiological method relative to control. The arrangement: scale not given: the % may be the effect or the level left. Particulars: Oocyte, filed as antagonist, dose 1.0 10^-5M. Type of test: cell-based.

Neuronal acetylcholine receptor subunit alpha-7, sequence (Q05941 whole entry): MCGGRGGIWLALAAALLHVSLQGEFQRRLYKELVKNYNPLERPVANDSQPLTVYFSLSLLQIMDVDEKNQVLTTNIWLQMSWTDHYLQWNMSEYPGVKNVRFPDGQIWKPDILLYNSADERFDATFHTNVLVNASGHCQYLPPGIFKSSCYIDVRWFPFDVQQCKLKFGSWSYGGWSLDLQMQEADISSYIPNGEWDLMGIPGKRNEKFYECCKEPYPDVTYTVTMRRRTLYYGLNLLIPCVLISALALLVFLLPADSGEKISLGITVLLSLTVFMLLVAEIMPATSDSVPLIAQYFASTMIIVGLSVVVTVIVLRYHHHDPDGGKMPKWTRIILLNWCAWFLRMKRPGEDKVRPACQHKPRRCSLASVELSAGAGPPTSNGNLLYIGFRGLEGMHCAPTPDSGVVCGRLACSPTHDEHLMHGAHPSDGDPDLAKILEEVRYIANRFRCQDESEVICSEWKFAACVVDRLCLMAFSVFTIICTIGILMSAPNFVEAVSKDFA
Neuronal acetylcholine receptor; alpha3/beta2, sequence (P04757 whole entry): as the sequence (P04757 whole entry) above
Neuronal acetylcholine receptor; alpha3/beta2, sequence (P12390 whole entry): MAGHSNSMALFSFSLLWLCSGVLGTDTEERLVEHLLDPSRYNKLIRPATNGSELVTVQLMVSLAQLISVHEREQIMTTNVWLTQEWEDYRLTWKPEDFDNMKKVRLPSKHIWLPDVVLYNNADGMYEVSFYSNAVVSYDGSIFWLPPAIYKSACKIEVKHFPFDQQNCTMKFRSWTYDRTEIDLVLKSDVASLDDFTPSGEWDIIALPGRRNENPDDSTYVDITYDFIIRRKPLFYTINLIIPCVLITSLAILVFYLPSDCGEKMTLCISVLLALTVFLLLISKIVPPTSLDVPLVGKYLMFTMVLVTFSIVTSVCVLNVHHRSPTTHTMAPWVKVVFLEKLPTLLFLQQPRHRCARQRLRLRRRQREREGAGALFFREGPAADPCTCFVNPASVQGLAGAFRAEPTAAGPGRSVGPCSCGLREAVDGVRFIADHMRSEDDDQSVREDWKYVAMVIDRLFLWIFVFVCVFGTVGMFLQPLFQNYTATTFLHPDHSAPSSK

As usually defined, the IC50 is the concentration that inhibits the measured activity by half. For the compound `C[C@@H]1NC(=O)[C@@H]2CSSC[C@H](N)C(=O)N[C@@H](CSSC[C@@H](C(N)=O)NC(=O)[C@H](Cc3cnc[nH]3)NC(=O)[C@H](CCC(=O)O)NC(=O)[C@H](Cc3cnc[nH]3)NC1=O)C(=O)N[C@@H](CO)C(=O)N[C@@H](CC(N)=O)C(=O)N1CCC[C@H]1C(=O)N1CCC[C@H]1C(=O)N2` (H-CCSNPPCAHEHC-NH2; disulfide 1-7, 2-12), the IC50 in test [1] is 1.81 µM; in test [2] it was over 10 µM; in test [3], 4.63 µM; in test [4] it was 3.3 µM; in test [5] it was over 10 µM; in test [6], over 10 µM. In addition, the IC50 in [7], in test [8], in [9] and in test [10] was over 10 µM throughout. In addition, in [11], the Activity is under 50%. For the same compound, the inhibition entry in test [12], in [13], in test [14], in test [15], in [16] and in [17] was “inactive” throughout.

With `C[C@@H]1NC(=O)[C@@H]2CSSC[C@H](NC(=O)[C@@H](N)CCC(N)=O)C(=O)N[C@@H](CSSC[C@@H](C(=O)N[C@@H](CCCNC(=N)N)C(=O)O)NC(=O)[C@H](Cc3cnc[nH]3)NC(=O)[C@H](CCC(=O)O)NC(=O)[C@H](Cc3cnc[nH]3)NC1=O)C(=O)N[C@@H](CO)C(=O)N[C@@H](CC(N)=O)C(=O)N1CCC[C@H]1C(=O)N1CCC[C@H]1C(=O)N2` (H-QCCSNPPCAHEHCR-OH; disulfide 2-8, 3-13), the IC50 in test [1] was 1.76 µM; in test [2], over 10 µM; in test [3] it was over 10 µM; in test [4], 5.3 µM; in test [5] it was over 10 µM; in test [6], over 10 µM. In addition, the IC50 in test [7], in test [8], in test [9] and in test [10] was over 10 µM throughout. The Activity in test [18] was under 50%. Also, the inhibition entry in [12], in test [13], in test [14], in [15], in test [16] and in test [17] was “inactive” in each case.
